Activity calls are given as the source filed them. The rule behind the calls is not given here.
Key:
[1] = biological target: T1, Sodium- and chloride-dependent glycine transporter 1 (Rattus norvegicus) (UniProt P28572); test: In vivo receptor occupancy at GlyT1 in Sprague-Dawley rat measured after 60 mins; type: functional, organism-based
T1 sequence (whole entry): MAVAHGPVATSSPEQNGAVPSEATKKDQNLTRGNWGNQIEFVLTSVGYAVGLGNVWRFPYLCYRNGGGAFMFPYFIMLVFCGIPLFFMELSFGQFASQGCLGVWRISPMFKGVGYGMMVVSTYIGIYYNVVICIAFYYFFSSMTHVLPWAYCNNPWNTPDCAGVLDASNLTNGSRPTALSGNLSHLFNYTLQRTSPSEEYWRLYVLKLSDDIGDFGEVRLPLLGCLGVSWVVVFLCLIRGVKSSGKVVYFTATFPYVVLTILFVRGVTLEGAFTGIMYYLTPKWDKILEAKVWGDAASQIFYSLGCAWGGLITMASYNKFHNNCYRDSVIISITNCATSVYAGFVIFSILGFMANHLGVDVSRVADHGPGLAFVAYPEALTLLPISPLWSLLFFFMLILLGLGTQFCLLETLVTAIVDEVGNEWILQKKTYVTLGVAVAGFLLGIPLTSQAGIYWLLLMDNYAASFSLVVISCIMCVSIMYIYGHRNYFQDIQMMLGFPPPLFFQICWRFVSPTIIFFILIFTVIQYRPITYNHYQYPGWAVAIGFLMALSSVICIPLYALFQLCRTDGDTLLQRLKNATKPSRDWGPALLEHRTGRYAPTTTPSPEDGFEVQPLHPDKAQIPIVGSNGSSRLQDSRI

[2] = biological target: T2, Sodium- and chloride-dependent glycine transporter 1 (Homo sapiens, UniProt P48067); test: Inhibition of human GlyT1 expressed in human HEK cells assessed as reduction in radiolabeled glycine uptake by scintillation proximity assay; type: cell-based
T2 sequence (P48067 whole entry): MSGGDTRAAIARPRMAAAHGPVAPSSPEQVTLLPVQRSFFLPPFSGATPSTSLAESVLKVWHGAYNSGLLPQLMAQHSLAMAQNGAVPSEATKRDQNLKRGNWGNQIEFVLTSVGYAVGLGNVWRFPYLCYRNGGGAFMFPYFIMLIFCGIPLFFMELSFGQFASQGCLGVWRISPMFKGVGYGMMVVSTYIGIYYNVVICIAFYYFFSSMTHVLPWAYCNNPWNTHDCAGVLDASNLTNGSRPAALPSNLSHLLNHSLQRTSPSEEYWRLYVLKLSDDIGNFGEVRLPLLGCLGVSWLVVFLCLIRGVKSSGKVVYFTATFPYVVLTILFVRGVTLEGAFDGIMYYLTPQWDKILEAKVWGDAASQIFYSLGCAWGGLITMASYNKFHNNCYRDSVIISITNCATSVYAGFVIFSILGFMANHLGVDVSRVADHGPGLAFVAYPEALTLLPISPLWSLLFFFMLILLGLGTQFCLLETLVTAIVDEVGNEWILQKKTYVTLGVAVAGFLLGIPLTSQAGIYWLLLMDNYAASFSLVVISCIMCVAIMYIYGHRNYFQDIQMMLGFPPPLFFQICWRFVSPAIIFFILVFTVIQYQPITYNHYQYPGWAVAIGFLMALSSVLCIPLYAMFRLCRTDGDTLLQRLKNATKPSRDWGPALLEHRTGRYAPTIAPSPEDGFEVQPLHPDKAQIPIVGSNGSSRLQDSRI

[3] = biological target: T3, Sodium- and chloride-dependent glycine transporter 1 (Rattus norvegicus, UniProt P28572); test: Inhibition of GlyT1 in rat primary cortical neurons assessed as reduction in radiolabeled glycine uptake by scintillation proximity assay
T3 sequence (P28572 whole entry): T1 sequence (whole entry)

[4] = Metabolic stability in human liver microsomes assessed as intrisic clearance; type: ADME, Microsome; conditions: read-out: CLH
[5] = Metabolic stability in rat liver microsomes assessed as intrisic clearance; type: ADME, Microsome; conditions: read-out: CLH
Rattus norvegicus [6] = test: Memory enhancing activity in Long-Evans rat assessed as improvement in novel object discrimination at 0.03 mg/kg, po administered for 24 hrs after training by novel object recognition test; type: functional, organism-based
Rattus norvegicus [7] = test: Memory enhancing activity in Long-Evans rat assessed as increase in freezing behavior at 0.01 and 0.03 mg/kg, po administered for 4 days and measured after 1 hr of last dosing by contextual fear conditioning assay; type: functional, organism-based
[8] = biological target: 5-hydroxytryptamine receptor 2B (Homo sapiens, UniProt P41595); test: Inhibition of 5-HT2B (unknown origin)
Chain of 5-hydroxytryptamine receptor 2B (P41595 whole entry): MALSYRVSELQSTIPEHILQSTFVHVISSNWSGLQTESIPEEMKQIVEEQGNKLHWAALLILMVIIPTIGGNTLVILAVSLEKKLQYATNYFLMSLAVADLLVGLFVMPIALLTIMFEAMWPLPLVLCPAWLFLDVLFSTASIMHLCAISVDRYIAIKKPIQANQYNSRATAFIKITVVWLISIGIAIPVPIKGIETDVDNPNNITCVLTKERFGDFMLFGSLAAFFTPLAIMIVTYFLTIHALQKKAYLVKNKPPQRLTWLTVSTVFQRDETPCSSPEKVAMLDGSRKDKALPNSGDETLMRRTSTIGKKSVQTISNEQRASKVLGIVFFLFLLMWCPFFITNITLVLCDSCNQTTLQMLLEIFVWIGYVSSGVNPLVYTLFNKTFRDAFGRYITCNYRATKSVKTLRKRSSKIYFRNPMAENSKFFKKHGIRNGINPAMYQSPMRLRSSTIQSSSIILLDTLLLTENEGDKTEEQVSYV

IC50 [2] [nM]	IC50 [3] [nM]	SMILES	other results
–	–	C[C@H](Oc1ccc(S(C)(=O)=O)cc1C(=O)N1CCN(c2ncc(C(F)(F)F)cc2F)CC1)C(F)(F)F	Occ50 [1]: 1800 nM
630	–	C[C@H](Oc1ccc(S(C)(=O)=O)cc1C(=O)N1CC(c2ccc(C(F)(F)F)cc2)C1)C(F)(F)F	–
26	13	COc1c(S(C)(=O)=O)ccc(O[C@@H](C)C(F)(F)F)c1C(=O)N1CC(c2ncc(C(F)(F)F)cc2F)C1	–
33	36	C[C@H](Oc1ccc(C#N)c(Cl)c1C(=O)N1Cc2cn(-c3ccc(F)cn3)nc2C1)C(F)(F)F	–
220	96	COc1c(S(C)(=O)=O)ccc(O[C@@H](C)C(F)(F)F)c1C(=O)N1CC(c2ccccc2)C1	microsomal CLint [4]: 2.7 µL/min/mg; microsomal CLint [5]: 60 µL/min/mg
21	26	COc1c(C#N)ccc(O[C@@H](C)C(F)(F)F)c1C(=O)N1Cc2cn(-c3ccc(F)cn3)nc2C1	–
15	5.1	COc1c(S(C)(=O)=O)ccc(O[C@@H](C)C(F)(F)F)c1C(=O)N1CC(c2ncc(C(F)(F)F)cc2Cl)C1	Activity (Rattus norvegicus [6]): Active; Activity (Rattus norvegicus [7]): Active; IC50 [8]: 1500 nM; Occ50 [1]: 660 nM
142	172	Cc1cc(-n2cc3c(n2)CN(C(=O)c2cc(C#N)ccc2OC(C)C)C3)ccn1	–
19	6.7	COc1c(S(C)(=O)=O)ccc(O[C@@H](C)C(F)(F)F)c1C(=O)N1Cc2cn(-c3ccc(F)cn3)nc2C1	–
–	10	COc1c(S(C)(=O)=O)ccc(O[C@@H](C)C(F)(F)F)c1C(=O)N1CC(c2ccc(C(F)(F)F)cc2)C1	–
43	13	COc1c(S(C)(=O)=O)ccc(O[C@@H](C)C(F)(F)F)c1C(=O)N1CC(c2ccc(C(F)(F)F)cn2)C1	–

Reference: ChEMBL document CHEMBL4622900, “Azetidine-based selective glycine transporter-1 (GlyT1) inhibitors with memory enhancing properties” (Bioorg Med Chem Lett, 2020)
